Test results as given in publication PMC10235687, “Venetoclax is a potent hepsin inhibitor that reduces the metastatic and prothrombotic phenotypes of hepsin-expressing colorectal cancer cells” (Frontiers in Molecular Biosciences, 2023).

Biological target: T1, Hepsin (Homo sapiens, UniProt P05981)
T1 construct: gene HPN; Recombinant hepsin (R&D Systems)
Test: Fluorogenic protease assay with recombinant hepsin ([…]) and BOC-Gln-Arg-Arg-AMC ([…]), pH […] h incubation with drug
Format: biochemical

T1 sequence (P05981 45-162 limits assumed): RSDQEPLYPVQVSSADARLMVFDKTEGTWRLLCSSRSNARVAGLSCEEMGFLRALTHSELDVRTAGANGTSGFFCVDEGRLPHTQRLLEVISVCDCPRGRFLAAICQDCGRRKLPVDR
T1 sequence (P05981 163-417 limits assumed): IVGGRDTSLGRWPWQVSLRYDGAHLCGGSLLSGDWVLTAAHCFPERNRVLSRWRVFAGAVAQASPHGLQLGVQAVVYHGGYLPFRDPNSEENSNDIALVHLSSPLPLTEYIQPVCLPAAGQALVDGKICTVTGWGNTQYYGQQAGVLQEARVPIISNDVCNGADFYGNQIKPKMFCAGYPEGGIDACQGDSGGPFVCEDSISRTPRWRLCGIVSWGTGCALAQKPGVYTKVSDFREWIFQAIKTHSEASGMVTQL

Q: Which IC50 does the source give for `CC1(C)CCC(CN2CCN(c3ccc(C(=O)NS(=O)(=O)c4ccc(NCC5CCOCC5)c([N+](=O)[O-])c4)c(Oc4cnc5[nH]ccc5c4)c3)CC2)=C(c2ccc(Cl)cc2)C1` [Venetoclax] here?
A: 480 nM
